According to patent US8889131B2, “NOTCH inhibition in the treatment and prevention of a metabolic disease or disorder and cardiovascular complications thereof” (The Brigham and Women's Hospital, Inc., priority 2009, dated 2014):

What was measured:
Format in all cases: cell-based, mouse
[1] = test system: Dll4-mediated Notch signaling; assay: MCP-1 expression in differentiated 3T3-L1 adipocytes
Experimental: 3T3-L1 preadipocytes (American Type Culture Collection) were maintained in Dulbecco's modified Eagle's medium (DMEM) (Gibco) containing 10% FBS. Differentiation of 3T3-L1 preadipocytes to mature adipocytes was performed as previously described and used as differentiated 3T3-L1 adipocytes at day 10 after the induction of differentiation. Differentiation was initiated two days after cells were confluent by adding fresh medium containing 0.5 mM isobutylmethylxanthine, 1 μM dexamethasone, and 10 μg/ml insulin. After two days, the methylisobutylxanthine and dexamethasone were removed and insulin was maintained for two additional days. On day 4 and thereafter, DMEM containing only 10% FBS was replaced every two days. […]
Applicants transfected siRNA against mouse Dll4 (Dharmacon), plasmid encoding mouse Dll4 (GeneCopoeia), RBP-Jκ reporter (SABiosciences), and Notch3 intracellular domains (N3ICD) to 3T3-L1 adipocytes by electroporation (Nucleofector system; Amaxa) according to the manufacturer's instructions. […] Luciferase activity was determined using a Dual-Luciferase Reporter Assay System (Promega). […]
(§1) Applicants synthesized cDNA from total RNA extracted from tissues and cells. Real-time quantitative RT-PCR was done with a MyiQ single-color real-time PCR detection system (BioRad) and PerfeCTa SYBR Green SuperMix for iQ (Quanta Biosciences). […]

[2] = test system: Dll4-mediated Notch signaling; assay: M1/M2 gene expression in RAW264.7 cells
Experimental: RAW264.7 cells (American Type Culture Collection) were also maintained in DMEM containing 10% FBS. For blockade of Dll4-mediated Notch signaling, Applicants pre-treated RAW264.7 cells with Dll4 Ab or IgG for 2 hours and then stimulated these cells with 1 ng/ml LPS for 24 hours. LPS stimulation activates the Notch signaling in RAW264.7 cells.
Applicants transfected siRNA against mouse Dll4 (Dharmacon), plasmid encoding mouse Dll4 (GeneCopoeia), RBP-Jκ reporter (SABiosciences), and Notch3 intracellular domains (N3ICD) to 3T3-L1 adipocytes by electroporation (Nucleofector system; Amaxa) according to the manufacturer's instructions. The Dll4-expressing plasmid was also transfected to RAW264.7 cells. N3ICD was a generous gift from Dr. Shigeru Chiba (Department of Clinical and Experimental Hematology, Graduate School of Comprehensive Human Sciences, University of Tsukuba). Applicants transfected 2 μg of siRNA or plasmid to cells and harvested them 48 hours or 24 hours after transfection, respectively. […] Luciferase activity was determined using a Dual-Luciferase Reporter Assay System (Promega). […]
as §1

[3] = test system: RBP-Jκ reporter; assay: RBP-Jκ reporter luciferase assay in 3T3-L1 adipocytes; details: 3T3-L1 adipocytes on rDll4-coated plates
Description: Applicants transfected siRNA against mouse Dll4 (Dharmacon), plasmid encoding mouse Dll4 (GeneCopoeia), RBP-Jκ reporter (SABiosciences), and Notch3 intracellular domains (N3ICD) to 3T3-L1 adipocytes by electroporation (Nucleofector system; Amaxa) according to the manufacturer's instructions. The Dll4-expressing plasmid was also transfected to RAW264.7 cells. N3ICD was a generous gift from Dr. Shigeru Chiba (Department of Clinical and Experimental Hematology, Graduate School of Comprehensive Human Sciences, University of Tsukuba). Applicants transfected 2 μg of siRNA or plasmid to cells and harvested them 48 hours or 24 hours after transfection, respectively. Applicants used 5 μl of RBP-Jκ reporter solution for each transfection. After incubation for 24 hours, cells were seeded to rDll4-coated plates and used for the luciferase assay after 48-hour incubation. Luciferase activity was determined using a Dual-Luciferase Reporter Assay System (Promega). Applicants transfected 5 μg of N3ICD to cells and harvested them 24 hours after transfection.

[4] = test system: NF-κB pathway; assay: NF-κB activation in 3T3-L1 adipocytes (immunoblotting, immunocytochemistry)
Experimental: Differentiated 3T3-L1 adipocytes were starved for 16 hours and then used for in vitro experiments. For blockade Dll4-mediated Notch signaling, Applicants treated 3T3-L1 adipocytes with Dll4 Ab or IgG (10 μg/ml) and γ-secretase inhibitor (DAPT, 10 μM) or DMSO for 24 hours. To activate Dll4-mediated Notch signaling, Applicants seeded 3T3-L1 adipocytes to plates coated with recombinant mouse Dll4 (rDll4) (1 μg/ml), and then harvested cells after 48-hour incubation (Williams, et al., Blood 107:931-939 (2006)). Applicants also used SN50 (25 μg/ml) NF-κB inhibitor to determine the interaction between Notch signaling and the NF-κB pathway.
Differentiated 3T3-L1 adipocytes incubated in rDll4-coated plates were fixed in 4% paraformaldehyde and permeabilized with 0.1% NP40. After blocking with 1% goat serum, cells were incubated with a rabbit anti-p65 antibody (Santa Cruz Biotechnology), followed by an Alexa Fluor 594-conjugated donkey anti-rabbit Ig antibody (Molecular Probes). Nuclei were counterstained with Hoechst 33342 (Sigma). Cells were observed under an ECLIPSE TE2000-U (Nikon) equipped with a mercury illumination system and SPOT RT Camera (Diagnostic Instruments, Inc.).
Lysates prepared from tissues and cells in lysis buffer containing protease inhibitor cocktail (Sigma) and phosphatase inhibitor cocktail (Roche) were separated with SDS-PAGE gels. Applicants used the following antibodies: NF-κB p65 (Santa Cruz Biotechnology), phospho-NF-κB p65 (Rock Land), IK-Bα (Cell Signaling), and β-actin (Sigma).

RBP-Jκ reporter activity [3] | Compound | MCP-1 RNA expression ([1]; differentiated 3T3-L1 adipocytes, blockade of Notch signaling) | anti-inflammatory M2 genes (e.g., IL-10) [2] | expression of pro-inflammatory M1 genes such as IL-1β and iNOS [2] | MCP-1 expression ([1]; 3T3-L1 adipocytes cultured on rDll4-coated dishes) | degradation of IκBα [4] | nuclear translocation of p65 [4] | phosphorylation of NF-κB subunit p65 [4]
 | C[C@H](NC(=O)Cc1cc(F)cc(F)c1)C(=O)N[C@H](C(=O)OC(C)(C)C)c1ccccc1 [DAPT] | produced a similar effect |  |  |  |  |  | 
Stimulation | rDll4: recombinant mouse Dll4 coated on plates to activate Dll4-mediated Notch signaling |  | suppressed | induced expression | promoted | increased | increased | increased
